Data published in patent US6608061B2, “Bisaryl compound and medicament for cancer treatment comprising the same” (Kyoma Hakko Kogyo Co., Ltd., priority 1997, dated 2003).
Read-outs that look alike come from different tables or passages of the source.

Key:
[1] = target: T1, human RNR (purified R1 and R2 subunits) (Homo sapiens, UniProt P23921+P31350); test: In vitro measurement of human RNR inhibitory activity (conversion of CDP to dCDP, HPLC); type: biochemical; conditions: 100 μM CDP, 37° C., 30 minutes, read-out: RNR Inhibition (IC50)
T1 construct: made in house; host or cells: Escherichia coli BL21(λDE3)pLysS, plasmids pETR1 and pETR2 (pET3a backbone)
T1 sequence (P23921 1-792): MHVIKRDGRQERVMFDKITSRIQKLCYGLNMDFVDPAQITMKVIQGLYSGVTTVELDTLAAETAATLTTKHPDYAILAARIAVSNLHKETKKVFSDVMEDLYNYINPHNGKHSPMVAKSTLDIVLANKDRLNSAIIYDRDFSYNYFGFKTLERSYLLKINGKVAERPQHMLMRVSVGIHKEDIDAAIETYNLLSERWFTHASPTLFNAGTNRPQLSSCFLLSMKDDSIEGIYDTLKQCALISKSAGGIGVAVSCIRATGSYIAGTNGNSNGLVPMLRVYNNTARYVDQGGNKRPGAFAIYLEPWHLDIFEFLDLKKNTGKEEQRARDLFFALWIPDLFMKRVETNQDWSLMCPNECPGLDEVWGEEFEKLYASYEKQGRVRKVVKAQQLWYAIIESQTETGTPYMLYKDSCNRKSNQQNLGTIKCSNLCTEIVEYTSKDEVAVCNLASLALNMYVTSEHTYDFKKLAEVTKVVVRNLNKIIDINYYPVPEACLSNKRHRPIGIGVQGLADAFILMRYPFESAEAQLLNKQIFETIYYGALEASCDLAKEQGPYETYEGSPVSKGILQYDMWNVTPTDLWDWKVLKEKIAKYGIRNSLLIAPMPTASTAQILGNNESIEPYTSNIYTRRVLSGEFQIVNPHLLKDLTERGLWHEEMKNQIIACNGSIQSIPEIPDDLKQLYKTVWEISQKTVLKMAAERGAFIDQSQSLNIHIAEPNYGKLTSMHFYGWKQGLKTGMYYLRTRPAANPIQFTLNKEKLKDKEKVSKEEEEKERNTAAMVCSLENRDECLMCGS
T1 sequence (P31350 1-389): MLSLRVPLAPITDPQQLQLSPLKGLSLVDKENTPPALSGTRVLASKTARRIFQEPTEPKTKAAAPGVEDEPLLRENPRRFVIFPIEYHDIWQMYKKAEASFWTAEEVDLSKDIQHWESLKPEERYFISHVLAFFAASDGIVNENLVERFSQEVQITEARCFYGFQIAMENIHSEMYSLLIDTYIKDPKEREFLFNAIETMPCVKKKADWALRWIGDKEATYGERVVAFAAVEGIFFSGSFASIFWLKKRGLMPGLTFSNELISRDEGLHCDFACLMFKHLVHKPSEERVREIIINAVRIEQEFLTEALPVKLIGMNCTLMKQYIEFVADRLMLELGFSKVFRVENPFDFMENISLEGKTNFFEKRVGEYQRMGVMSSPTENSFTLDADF

HeLa S3 cells = test: Test for growth inhibition of HeLa S3 cells; type: cell-based; conditions: HeLa S3 cells, 72 hours with test compound, Cell Proliferation Kit II, read-out: Cell growth inhibition (IC50)
Method: Test for Growth Inhibition of Hela S3 Cells
HeLa S3 cells prepared at 1×10^4 cells/ml in MEM culture medium containing 10% fetal bovine serum and 2 mM glutamine were added to each well of a 96-well microtiter plate (0.1 ml for each well). The cells were cultured at 37° C. in a CO2 incubator for 24 hours, and then 0.05 ml of test compound appropriately diluted with the above medium was added to each well, and then the mixture was cultured at 37° C. in a CO2 incubator for 72 hours. After the culture supernatant was removed, each well was washed with 0.1 ml of PBS buffer twice, and 0.1 ml of the aforementioned medium was added to each well again.
Cell Proliferation Kit II (Boehringer Mennheim) was used for measurement of cell number in each well. After a coloring reaction reagent was added, the plate was warmed to 37° C. in a CO2 incubator for 3 hours. Then, absorbances at 490 nm and 655 nm were measured by a microplate reader, and a value (difference of absorbance) was calculated for each well by subtracting the absorbance at […] from the absorbance at 490 nm. By comparing the differences of absorbance for cells without treatment and cells treated with a test compound at a known concentration, a concentration of test compound which inhibited the cell growth by 50% was calculated, and the value obtained was determined as IC50. The values of RNR inhibitory activity obtained in Example 8, and the values of cell growth inhibitory activity obtained in Example 9 are shown in the following tables (the compound numbers used in the tables correspond to the compound numbers shown in the aforementioned tables).

| SMILES | IC50 [1] | IC50 (HeLa S3 cells; Homo sapiens, HeLa S3, 72 h) | IC50 (HeLa S3 cells) |
| --- | --- | --- | --- |
| Oc1ccc(SCCN(CCSc2ccc(O)cc2)CCN2CCCCC2)cc1 [Compound 111] | 1.85 µM | 11.4 µM |  |
| O=C(CN(CCSc1ccc(O)cc1)CCSc1ccc(O)cc1)N1CCC[C@H]1CO [Compound 206] | 1.13 µM | 3.31 µM |  |
| O=C(c1ccccn1)N(CCSc1ccc(O)cc1)CCSc1ccc(O)cc1 [Compound 115] | 4.14 µM | 6.14 µM |  |
| Oc1ccc(SCc2ccccc2CSc2ccc(O)cc2)cc1 [Compound 161] | 1.13 µM | 34.2 µM |  |
| OC[C@H]1OC(N(CCSc2ccc(O)cc2)CCSc2ccc(O)cc2)[C@@H](O)[C@@H](O)[C@@H]1O (stereo partly shown) [Compound 214] | 2.69 µM | 7.73 µM |  |
| CC1(C)OC(CSc2ccc(O)cc2)C(CSc2ccc(O)cc2)O1 (stereo not shown) [Compound 183] | 0.42 µM | 10.4 µM |  |
| O=C1N(CS(=O)(=O)CCSc2ccc(O)cc2)CCCN1CS(=O)(=O)CCSc1ccc(O)cc1 [Compound 7] | 4.82 µM | > 101 µM |  |
| CSCCN(CCSc1ccc(O)cc1)CCSc1ccc(O)cc1 [Compound 87] | 1.01 µM | 2.57 µM |  |
| CC(=O)NCCN(CCSc1ccc(O)cc1)CCSc1ccc(O)cc1 [Compound 83] | 2.95 µM | 5.17 µM |  |
| O=C(CN(CCSc1ccc(O)cc1)CCSc1ccc(O)cc1)N(CCO)CCO [Compound 208] | 3.46 µM | 5.93 µM |  |
| Oc1ccc(SCC=CCSc2ccc(O)cc2)cc1 [Compound 159] | 0.69 µM | 6.89 µM |  |
| Oc1ccc(SCSc2ccc(O)cc2)cc1 [Compound 132] | 3.5 µM | 45.6 µM |  |
| O=C(CCSc1ccc(O)cc1)N(CCSc1ccc(O)cc1)CCSc1ccc(O)cc1 [Compound 52] | 4.38 µM | 6.5 µM |  |
| NC(=O)CN(CCSc1ccc(O)cc1)CCSc1ccc(O)cc1 [Compound 225] |  |  | 0.55 µM |
| Oc1ccc(SCCOCCOCCOCCSc2ccc(O)cc2)cc1 [Compound 171] | 8.01 µM | 30 µM |  |
| Oc1ccc(SCCN(CCSc2ccc(O)cc2)CC2CC2)cc1 [Compound 75] | 1.66 µM | 3.56 µM |  |
| Oc1ccc(SCCNCCSc2ccc(O)cc2)cc1 [Compound 45] | 3.64 µM | 5.64 µM |  |
| O=C1CCC(=O)N1CCN(CCSc1ccc(O)cc1)CCSc1ccc(O)cc1 [Compound 86] | 3.14 µM | 3.78 µM |  |
| O=C(N1CCCCC1)N(CCSc1ccc(O)cc1)CCSc1ccc(O)cc1 [Compound 125] | 0.91 µM | 4.55 µM |  |
| OC[C@@H]1OC(N(CCSc2ccc(O)cc2)CCSc2ccc(O)cc2)[C@H](O)[C@H](O)[C@H]1O (stereo partly shown) [Compound 218] | 4.97 µM | 23.2 µM |  |
| Oc1ccc(SCCN(CCSc2ccc(O)cc2)Cc2ccccc2F)cc1 [Compound 105] | 3.99 µM | 9.07 µM |  |
| NC(=O)[C@H]1OC(N(CCSc2ccc(O)cc2)CCSc2ccc(O)cc2)[C@H](O)[C@@H](O)[C@@H]1O (stereo partly shown) [Compound 219] | 3.51 µM | 25.2 µM |  |
| CCN(CC)CCN(CCSc1ccc(O)cc1)CCSc1ccc(O)cc1 [Compound 109] | 2.36 µM | 38.9 µM |  |

| SMILES | IC50 [1] | IC50 (HeLa S3 cells; Homo sapiens, HeLa S3, 72 h) | IC50 (HeLa S3 cells) |
| --- | --- | --- | --- |
| CS(=O)(=O)NCCN(CCSc1ccc(O)cc1)CCSc1ccc(O)cc1 [Compound 195] | 0.55 µM | 3.16 µM |  |
| O=C(N(CCSc1ccc(O)cc1)CCSc1ccc(O)cc1)N1CCCc2ccccc21 [Compound 57] | 0.73 µM | 14.4 µM |  |
| O=C(c1ccncc1)N(CCSc1ccc(O)cc1)CCSc1ccc(O)cc1 [Compound 117] | 1.69 µM | 2.72 µM |  |
| CCC(=O)N(CCSc1ccc(O)cc1)CCSc1ccc(O)cc1 [Compound 113] | 4.77 µM | 3.8 µM |  |
| Oc1ccc(SCCCCCCCSc2ccc(O)cc2)cc1 [Compound 138] | 2.29 µM | 18.3 µM |  |
| O=C(CN(CCSc1ccc(O)cc1)CCSc1ccc(O)cc1)NC(CO)CO [Compound 205] | 1.19 µM | 7.32 µM |  |
| Oc1ccc(SCCCCCCSc2ccc(O)cc2)cc1 [Compound 137] | 0.87 µM | 5.45 µM |  |
| Oc1ccc(SCC(O)CSc2ccc(O)cc2)cc1 [Compound 156] | 2.27 µM | 5.45 µM |  |
| Oc1ccc(SCc2cccc(CSc3ccc(O)cc3)n2)cc1 [Compound 1] | 4.26 µM | 5.15 µM |  |
| CC(=O)N(CCSc1ccc(O)cc1)CCSc1ccc(O)cc1 [Compound 54] | 0.48 µM | 4.63 µM |  |
| Oc1ccc(SCCOCOCCSc2ccc(O)cc2)cc1 [Compound 162] | 1.7 µM | 3.7 µM |  |
| Oc1ccc(SCCCCSc2ccc(O)cc2)cc1 [Compound 135] | 0.43 µM | 6.02 µM |  |
| O=C(CSc1ccc(O)cc1)C(=O)CSc1ccc(O)cc1 [Compound 186] | 11.9 µM | 56 µM |  |
| Oc1ccc(SCCN(CCSc2ccc(O)cc2)Cc2ccc(F)cc2)cc1 [Compound 106] | 4.64 µM | 6.77 µM |  |
| Oc1ccc(SCCN(CCSc2ccc(O)cc2)Cc2ccccc2)cc1 [Compound 98] | 3.36 µM | 15 µM |  |
| Oc1ccc(SCCC(O)CSc2ccc(O)cc2)cc1 (stereo not shown) [Compound 184] | 0.3 µM | 2.46 µM |  |
| Oc1ccc(SCCSc2ccc(O)cc2)cc1 [Compound 133] | 2.27 µM | 14.5 µM |  |
| O=C(CN(CCSc1ccc(O)cc1)CCSc1ccc(O)cc1)Nc1nccs1 [Compound 210] | 5.91 µM | 2.82 µM |  |
| N=C(N)NCCN(CCSc1ccc(O)cc1)CCSc1ccc(O)cc1 [Compound 202] | 1.87 µM | 42.6 µM |  |
| CC(=O)CN(CCSc1ccc(O)cc1)CCSc1ccc(O)cc1 [Compound 81] | 0.29 µM | 1.23 µM |  |
| O=C(CCN(CCSc1ccc(O)cc1)CCSc1ccc(O)cc1)N1CCOCC1 [Compound 107] | 4.2 µM | 24.9 µM |  |
| NC(=O)CN(CCSc1ccc(O)cc1)CCSc1ccc(O)cc1 [Compound 224] |  |  | 0.4 µM |
